In ChEMBL document CHEMBL1129868 (Bioorg Med Chem Lett, 1997):

What was measured:
[1] = molecular target: Adrenergic receptor beta (Rattus norvegicus, UniProt P18090+P10608+P26255); experiment: The compound was tested for its ability to inhibit (-)-[3H]dihydroalprenolol binding to beta-adrenergic receptor sites in rat cortex
[2] = molecular target: Beta-1 adrenergic receptor (Cavia porcellus, UniProt B0FL73); experiment: Tested for beta-1-adrenergic blocking effect by measuring the ability to inhibit the positive inotropic effect of isoproterenol on the isolated right atrium of guinea pigs; format: functional, tissue-based, Cardiac atrium
Beta-1 adrenergic receptor, sequence (B0FL73 whole entry): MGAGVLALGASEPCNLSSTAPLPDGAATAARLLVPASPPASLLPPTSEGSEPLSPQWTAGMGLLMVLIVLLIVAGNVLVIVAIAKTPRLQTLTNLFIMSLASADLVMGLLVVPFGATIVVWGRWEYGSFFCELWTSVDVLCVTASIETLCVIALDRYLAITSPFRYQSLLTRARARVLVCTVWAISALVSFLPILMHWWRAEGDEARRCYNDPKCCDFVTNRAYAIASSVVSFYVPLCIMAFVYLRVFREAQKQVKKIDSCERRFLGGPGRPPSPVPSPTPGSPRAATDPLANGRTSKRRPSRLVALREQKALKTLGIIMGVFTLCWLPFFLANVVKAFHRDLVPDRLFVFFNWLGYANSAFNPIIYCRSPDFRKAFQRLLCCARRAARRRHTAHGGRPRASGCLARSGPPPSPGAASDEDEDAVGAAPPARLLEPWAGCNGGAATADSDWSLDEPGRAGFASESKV

[3] = Ratio of beta-1-adrenergic blocking effect to that of beta 2 -adrenergic blocking effect; format: functional

Row | Structure (SMILES) | IC50 [1] | IC50 [2] | Ratio [3]
1 | COCCc1ccc(OC(F)(F)[C@H](O)CNC(C)C)cc1 | > 100 µM |  | 
2 | COCCc1ccc(OC(F)(F)[C@@H](O)CNC(C)C)cc1 | 1.54 µM | 1.35 µM | 0.63
